Test results as given in publication PMC5645246 (Anesthesiology, 2017).
“And” between values parts separate entries of the source, which are not always exact repeats. Identical values can stand only once. “Also recorded” adds a separate entry of the source. Like-named read-outs stand apart in the source and are kept apart here.

What was measured:
α1β3γ2L GABAA receptors [1] = target: T1, α1β3γ2L GABAA receptors (Homo sapiens, UniProt P14867+P18507+P28472); format: cell-based; conditions: for EC5 GABA-evoked currents in the presence of drug, as % of those evoked by 1 mM GABA: 300 μM drug, mean ± SD; for maximum peak current amplitude at high drug concentrations, relative to that produced by 1 mM GABA: EC5 GABA; for maximum peak current amplitude at high drug concentrations, relative to that produced by 1 mM GABA / slope of potentiation concentration-response curve: fit to equation 1
α1β3γ2L GABAA receptors [2] = target: T1, α1β3γ2L GABAA receptors; format: cell-based
α1β3γ2L GABAA receptors [3] = target: T1, α1β3γ2L GABAA receptors; format: cell-based; remark: listed apart in the source
[4] = tested on: GABAA receptor transmembrane anesthetic binding sites; conditions: photolabel protection studies; cited from earlier work
[5] = target: α1β3γ2L GABAA receptor open and closed states (Homo sapiens, UniProt P14867+P18507+P28472); assay: Allosteric modeling of direct activation data; format: cell-based
Aqueous saturation = format: physicochemical; conditions: aqueous buffer
[6] = target: α1β3γ2L GABAA receptors (α+−β− and γ+−β− transmembrane anesthetic sites) (Homo sapiens, UniProt P14867+P18507+P28472); assay: Inhibition of receptor photoaffinity labeling by R-[3H]mTFD-MPAB; conditions: for slope for inhibition of R-[3H]mTFD-MPAB photoincorporation: fit to equation 2
[7] = target: α1β3γ2L GABAA receptors (β+−α− transmembrane anesthetic sites) (Homo sapiens, UniProt P14867+P18507+P28472); assay: Inhibition of receptor photoaffinity labeling by [3H]azi-etomidate; conditions: for slope for inhibition of [3H]azi-etomidate photoincorporation: fit to equation 2
α1β3γ2L GABAA receptors [8] = target: T1, α1β3γ2L GABAA receptors; conditions: 300 μM naphthalene-etomidate; for Percent change in peak current amplitude, GABA EC5 + Etomidate: etomidate 3 μM; for Percent change in peak current amplitude, GABA EC5 + Pentobarbital: pentobarbital 120 μM; for Percent change in peak current amplitude, GABA EC5 + Propofol: propofol 10 μM
[9] = absence of naphthalene-etomidate
[10] = presence of 300 μM naphthalene-etomidate
[11] = EC5 GABA + 10 μM propofol, fit to equation 2
[12] = listed as Naphthalene-etomidate
[13] = GABA Pre-exposure, mean ± SD, n = 6
[14] = Naphthalene-etomidate Pre-exposure (10 s), mean ± SD, n = 6
[15] = Simultaneous Addition, mean ± SD, n = 6

α1β3γ2L GABAA receptors (α+−β− and γ+−β− transmembrane anesthetic sites), sequence (P14867 28-456): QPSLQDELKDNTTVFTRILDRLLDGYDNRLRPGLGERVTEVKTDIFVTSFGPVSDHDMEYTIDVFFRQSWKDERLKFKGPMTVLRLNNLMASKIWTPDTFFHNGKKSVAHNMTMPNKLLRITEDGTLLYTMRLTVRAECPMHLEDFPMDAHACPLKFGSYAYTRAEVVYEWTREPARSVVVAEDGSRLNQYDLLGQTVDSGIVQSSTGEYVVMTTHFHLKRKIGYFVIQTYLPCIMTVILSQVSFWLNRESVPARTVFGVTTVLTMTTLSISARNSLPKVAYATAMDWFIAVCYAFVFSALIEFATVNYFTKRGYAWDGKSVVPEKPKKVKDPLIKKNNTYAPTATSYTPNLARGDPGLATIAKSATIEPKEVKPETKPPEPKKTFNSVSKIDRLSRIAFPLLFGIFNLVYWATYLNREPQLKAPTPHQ
α1β3γ2L GABAA receptors (α+−β− and γ+−β− transmembrane anesthetic sites), sequence (P28472 26-473): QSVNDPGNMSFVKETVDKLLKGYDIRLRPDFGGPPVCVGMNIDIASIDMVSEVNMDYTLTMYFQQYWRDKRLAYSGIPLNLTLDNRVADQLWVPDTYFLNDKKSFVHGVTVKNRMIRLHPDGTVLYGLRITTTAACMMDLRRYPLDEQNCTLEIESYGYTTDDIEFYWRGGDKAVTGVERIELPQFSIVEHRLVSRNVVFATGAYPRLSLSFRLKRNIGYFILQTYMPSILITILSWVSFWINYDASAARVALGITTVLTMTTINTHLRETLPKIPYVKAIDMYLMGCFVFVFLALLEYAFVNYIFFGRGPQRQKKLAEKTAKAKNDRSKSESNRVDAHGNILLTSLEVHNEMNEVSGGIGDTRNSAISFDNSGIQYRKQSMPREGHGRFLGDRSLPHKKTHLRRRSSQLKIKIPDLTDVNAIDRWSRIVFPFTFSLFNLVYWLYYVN
α1β3γ2L GABAA receptors (α+−β− and γ+−β− transmembrane anesthetic sites), sequence (P18507 40-475): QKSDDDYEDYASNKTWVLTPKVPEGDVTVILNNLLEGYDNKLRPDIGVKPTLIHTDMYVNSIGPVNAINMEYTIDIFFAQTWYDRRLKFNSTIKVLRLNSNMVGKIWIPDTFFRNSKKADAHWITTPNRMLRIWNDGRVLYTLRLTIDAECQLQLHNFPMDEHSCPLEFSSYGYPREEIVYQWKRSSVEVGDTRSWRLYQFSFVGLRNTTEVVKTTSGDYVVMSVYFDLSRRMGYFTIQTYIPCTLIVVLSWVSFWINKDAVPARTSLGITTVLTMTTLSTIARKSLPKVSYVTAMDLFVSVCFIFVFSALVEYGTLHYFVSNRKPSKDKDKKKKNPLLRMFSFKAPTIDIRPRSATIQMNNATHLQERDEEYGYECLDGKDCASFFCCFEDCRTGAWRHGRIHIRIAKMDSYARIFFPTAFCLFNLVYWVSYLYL
T1 sequence (P14867 28-456): as the sequence (P14867 28-456) above
T1 sequence (P28472 26-473): as the sequence (P28472 26-473) above
T1 sequence (P18507 40-475): as the sequence (P18507 40-475) above
α1β3γ2L GABAA receptors (β+−α− transmembrane anesthetic sites), sequence (P14867 28-456): as the sequence (P14867 28-456) above
α1β3γ2L GABAA receptors (β+−α− transmembrane anesthetic sites), sequence (P28472 26-473): as the sequence (P28472 26-473) above
α1β3γ2L GABAA receptors (β+−α− transmembrane anesthetic sites), sequence (P18507 40-475): as the sequence (P18507 40-475) above
α1β3γ2L GABAA receptor open and closed states, sequence (P14867 28-456): as the sequence (P14867 28-456) above
α1β3γ2L GABAA receptor open and closed states, sequence (P28472 26-473): as the sequence (P28472 26-473) above
α1β3γ2L GABAA receptor open and closed states, sequence (P18507 40-475): as the sequence (P18507 40-475) above

## CCOC(=O)c1cncn1[C@H](C)c1ccccc1 [etomidate, reference compound]
α1β3γ2L GABAA receptors [1]; 100 μM drug, representative traces, single oocyte
  fold potentiation of EC5 GABA-evoked current: 14 fold
α1β3γ2L GABAA receptors [1]
  EC5 GABA-evoked currents in the presence of drug, as % of those evoked by 1 mM GABA: 90 ± 7%
  maximum peak current amplitude at high drug concentrations, relative to that produced by 1 mM GABA: 95%
  slope of potentiation concentration-response curve: 1.2
α1β3γ2L GABAA receptors [2]; fit to equation 1
  slope of direct activation concentration-response curve: 1.2

## CC(C)c1cccc(C(C)C)c1O [propofol]
α1β3γ2L GABAA receptors [3]; 10 μM propofol, absence of naphthalene-etomidate
  peak current amplitude (normalized to 1 mM GABA) produced with EC5 GABA: 61%
α1β3γ2L GABAA receptors [3]; EC50 for propofol potentiation of EC5 GABA-evoked currents, absence of naphthalene-etomidate, minimum constrained to 5%
  EC50: 6 µM
α1β3γ2L GABAA receptors [3]; [9]
  maximal peak current response at high propofol concentrations: 88%
  slope of propofol potentiation curve: 1.5
α1β3γ2L GABAA receptors [3]; [10]
  maximal peak current response at high propofol concentrations: 87%
  slope of propofol potentiation curve: 1.0
[4]
  binding selectivity for β+–α− sites as compared to α+–β−/γ+–β− sites: essentially no selectivity at all; also recorded: virtually no binding site selectivity

## CCCC(C)C1(CC)C(=O)NC(=O)NC1=O (stereo not shown) [pentobarbital]
[4]
  binding selectivity for β+–α− sites as compared to α+–β−/γ+–β− sites: reverse selectivity

## CCOC(=O)c1cncn1C(C)c1cccc2ccccc12 (stereo not shown) [naphthalene-etomidate]
α1β3γ2L GABAA receptors [1]
  EC5 GABA-evoked currents in the presence of drug, as % of those evoked by 1 mM GABA: 11 ± 2.7% and 11%
  maximum peak current amplitude at high drug concentrations, relative to that produced by 1 mM GABA: 11%
  slope of potentiation concentration-response curve: 3
α1β3γ2L GABAA receptors [2]; same oocyte, no GABA
  directly activated currents compared with those activated by etomidate: orders of magnitude smaller
α1β3γ2L GABAA receptors [3]; 300 μM naphthalene-etomidate
  fold increase in EC50 for propofol potentiation of EC5 GABA-evoked currents: 6 fold
α1β3γ2L GABAA receptors [3]; [11]
  minimum normalized peak current at high naphthalene-etomidate concentrations: 24%
  slope for inhibition of propofol-potentiated currents: −3.9
[5]; comparison of dissociation constants
  fold lower affinity for the open state of the receptor versus etomidate: 27 fold
[5]; from Kdopen and Kdclosed
  fold higher affinity for the open state than the closed state: 4.4 fold
Aqueous saturation
  near aqueous-saturating concentration: ~300 µM
[6]
  slope for inhibition of R-[3H]mTFD-MPAB photoincorporation: −1.3
[6]; [12]
  slope for inhibition of R-[3H]mTFD-MPAB photoincorporation: −2.0
[6]; highest concentrations studied
  inhibition of specific R-[3H]mTFD-MPAB photoincorporation: ≥ 90%
[7]
  slope for inhibition of [3H]azi-etomidate photoincorporation: −2.0
[7]; [12]
  slope for inhibition of [3H]azi-etomidate photoincorporation: −1.2
[7]; highest concentrations studied
  inhibition of specific [3H]azi-etomidate photoincorporation: ≥ 90%
α1β3γ2L GABAA receptors [8]
  fold greater reduction in currents potentiated by propofol compared to currents potentiated by etomidate or pentobarbital: approximately 2 fold
α1β3γ2L GABAA receptors [8]; GABA Pre-exposure, diazepam 1 μM, mean ± SD, n = 6
  Percent change in peak current amplitude, GABA EC5 + Diazepam: 33 ± 6.9%
α1β3γ2L GABAA receptors [8]; [13]
  Percent change in peak current amplitude, GABA EC5 + Etomidate: −24 ± 1.8%
  Percent change in peak current amplitude, GABA EC50: 21 ± 9%
  Percent change in peak current amplitude, GABA EC5 + Pentobarbital: −21 ± 5.4%
  Percent change in peak current amplitude, GABA EC5 + Propofol: −49 ± 4.69%
α1β3γ2L GABAA receptors [8]; [14]
  Percent change in peak current amplitude, GABA EC5 + Etomidate: −47 ± 4.1%
  Percent change in peak current amplitude, GABA EC50: −8.8 ± 8.6%
  Percent change in peak current amplitude, GABA EC5 + Pentobarbital: −45 ± 7.9%
  Percent change in peak current amplitude, GABA EC5 + Propofol: −68 ±6.0%
α1β3γ2L GABAA receptors [8]; [15]
  Percent change in peak current amplitude, GABA EC5 + Etomidate: −33 ± 7.8%
  Percent change in peak current amplitude, GABA EC5 + Pentobarbital: −33 ± 7.1%
  Percent change in peak current amplitude, GABA EC5 + Propofol: −63 ± 7.3%
α1β3γ2L GABAA receptors [8]; Simultaneous Addition, mean ± SD, n = 6 oocytes
  Percent change in peak current amplitude, GABA EC50: 7.3 ± 8.8%
